Reference: PMC8122671, “New Succinimides with Potent Anticancer Activity: Synthesis, Activation of Stress Signaling Pathways and Characterization of Apoptosis in Leukemia and Cervical Cancer Cells” (International Journal of Molecular Sciences, 2021)

Tests used:
[1] = tested on: HeLa (human cervix carcinoma) cells; test: MTT cytotoxicity assay, HeLa; assay type: cell-based; settings: 48 h incubation, average (SD) of three experiments, read-out: IC50 HeLa
[2] = tested on: HUVEC (normal endothelial) cells; test: MTT cytotoxicity assay, HUVEC; assay type: cell-based; settings: Homo sapiens, 48 h incubation, average (SD) of three experiments, read-out: IC50 HUVEC

Row | SMILES | IC50 [1] [nM] | IC50 [2] [nM]
1 | CC(C)(C)NCC(O)CN1C(=O)C2C(C1=O)C1(c3ccccc3)CC2(c2ccccc2)C(c2ccccc2)=C1c1ccccc1 (centres unmarked) [3c, 4-[3-(tert-butylamino)-2-hydroxypropyl]-1,7,8,9-tetraphenyl-4-azatricyclo[5.2.1.0^2,6]dec-8-ene-3,5-dione] | 2000 | 400
2 | CCC12C(=O)C(CC)(C(c3ccccc3)=C1c1ccccc1)C1C(=O)N(CC(O)CNC(C)(C)C)C(=O)C12 (centres unmarked) [2c, 4-[3-(tert-butylamino)-2-hydroxypropyl]-1,7-diethyl-8,9-diphenyl-4-azatricyclo [5.2.1.0^2,6]dec-8-ene-3,5,10-trione] | 3200 | 3300
3 | CCN(CC)CC(O)CN1C(=O)C2C(C1=O)C1(c3ccccc3)CC2(c2ccccc2)C(c2ccccc2)=C1c1ccccc1 (centres unmarked) [3d, 4-[3-(diethylamino)-2-hydroxypropyl]-1,7,8,9-tetraphenyl-4-azatricyclo[5.2.1.0^2,6]dec-8-ene-3,5-dione] | 1900 | 300
4 | CCN(CC)CC(O)CN1C(=O)C2C(C1=O)C1(CC)C(=O)C2(CC)C(c2ccccc2)=C1c1ccccc1 (centres unmarked) [2d, 4-[3-(diethylamino)-2-hydroxypropyl]-1,7-diethyl-8,9-diphenyl-4-azatricyclo [5.2.1.0^2,6]dec-8-ene-3,5,10-trione] | 18000 | 3600
